# In patent publication US11512268B2, “Storage-stable enzyme preparations, their production and use” (BASF SE, priority 2017, dated 2022):
# Legend:
# [1] = target: T1, Lipolase (Thermomyces lanuginosus, UniProt O59952); assay: storage stability of lipase (Lipolase activity, pNitrophenol-valerate substrate) in liquid formulations at 37° C.; format: biochemical, Thermomyces lanuginosa; details: component (a) 2.5 wt %, Lipolase 0.4 wt %, storage at 37° C.
# T1 construct: purchased Sigma-Aldrich
# T1 sequence (O59952 23-291): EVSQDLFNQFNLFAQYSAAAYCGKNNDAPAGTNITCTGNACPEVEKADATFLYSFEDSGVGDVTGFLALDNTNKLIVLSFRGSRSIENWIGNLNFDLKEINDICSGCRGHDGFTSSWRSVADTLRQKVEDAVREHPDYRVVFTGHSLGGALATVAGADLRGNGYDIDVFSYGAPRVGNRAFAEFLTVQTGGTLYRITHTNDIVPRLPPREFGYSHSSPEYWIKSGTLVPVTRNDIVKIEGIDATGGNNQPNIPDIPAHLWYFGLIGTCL
# Procedure: (§1) The storage stability of Lipase and Protease in water was assessed at 37° C.
# (§2) Base test formulations were manufactured by making base formulations I to VI by mixing the components according to Table 1.
# (§3) The respective salt (component (a)) or comparative compound was added, if applicable, to the respective base formulation in amounts as indicated in Table 1.
# (§4) The amount of enzyme as provided in Table 1 refers to active protein. Either lipase or protease was added, depending on which enzyme activity was measured.
# (§5) Lipolase® 100 L (CAS-No. 9001-62-1, EC-No. 232-619-9) was purchased from Sigma-Aldrich. Savinase® 16.0 L (CAS-No. 9014-01-1, EC-No. 232-752-2) was purchased from Sigma-Aldrich.
# Lipolase activity at certain points in time as indicated in Table 2 was be determined by employing pNitrophenol-valerate (2.4 mM pNP-C5 in 100 mM Tris pH 8.0, 0.01% Triton X100) as a substrate. The absorption was measured at 20° C. every 30 seconds over 5 minutes at 405 nm. The slope (absorbance increase at 405 nm per minute) of the time dependent absorption-curve is directly proportional to the activity of the lipase.
# The lipolytic activity values provided in Table 2 were calculated referring to the 100% value determined in the reference formulation at the time 0.
# (§6) The nomenclature of formulations is as follows: the Roman number before the full stop characterizes the base formulation, the Arabian number the type of salt (A.# inventive salt (component (a)); C-(A.#) comparative compound). Zero (“0”): no salt, but diethylene glycol.
# [2] = target: T2, Savinase (Lederbergia lenta, UniProt P29600); assay: storage stability of protease (Savinase activity, Suc-AAPF-pNA substrate) in liquid formulations at 37° C.; format: biochemical; details: base formulation III., component (a) 2.5 wt %, Savinase 16.0 L 0.5 wt %, storage at 37° C.
# T2 construct: purchased Sigma-Aldrich
# T2 sequence (P29600 1-269): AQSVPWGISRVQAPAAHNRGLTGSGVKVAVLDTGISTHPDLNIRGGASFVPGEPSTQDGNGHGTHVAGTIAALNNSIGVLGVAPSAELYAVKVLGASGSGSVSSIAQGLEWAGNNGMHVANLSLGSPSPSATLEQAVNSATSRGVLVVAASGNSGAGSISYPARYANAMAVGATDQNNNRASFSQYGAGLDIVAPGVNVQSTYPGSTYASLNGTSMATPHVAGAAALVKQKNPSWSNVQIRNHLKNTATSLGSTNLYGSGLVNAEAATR
# Procedure: as §1, §2, §3, §4, §5
# Savinase activity at certain points in time as indicated in Table 3 was be determined by employing Succinyl-Ala-Ala-Pro-Phe-p-nitroanilide (Suc-AAPF-pNA, short AAPF) as substrate. pNA is cleaved from the substrate molecule by proteolytic cleavage, resulting in release of yellow color of free pNA which was determined by measuring OD405. Measurement were done at 20° C.
# The proteolytic activity values provided in Table 3 were calculated referring to the 100% value determined in the reference formulation at the time 0.
# as §6
SMILES,"lipase activity ([1]; base formulation II., 1 d) [%]","lipase activity ([1]; base formulation II., 3 d) [%]","lipase activity ([1]; base formulation II., 6 d) [%]","lipase activity ([1]; base formulation II., 10 d) [%]","lipase activity ([1]; base formulation II., 15 d) [%]","lipase activity ([1]; base formulation II., 20 d) [%]","lipase activity ([1]; base formulation II., 25 d) [%]","lipase activity ([1]; base formulation II., 30 d) [%]","lipase activity ([1]; base formulation III., 1 d) [%]","lipase activity ([1]; base formulation III., 3 d) [%]","lipase activity ([1]; base formulation III., 6 d) [%]","lipase activity ([1]; base formulation III., 10 d) [%]","lipase activity ([1]; base formulation III., 15 d) [%]","lipase activity ([1]; base formulation III., 20 d) [%]","lipase activity ([1]; base formulation III., 25 d) [%]","lipase activity ([1]; base formulation III., 30 d) [%]","lipase activity ([1]; base formulation III., T0) [%]",further results
"O=C([O-])CC(O)(CC(=O)[O-])C(=O)[O-].[Na+].[Na+].[Na+] [C-(A.22), trisodium salt of citric acid]",87,79,67,55,40,33,24,18,92,76,66,48,37,28,23,19,98,"lipase activity ([1]; base formulation II., T0): 95%"
"O=C([O-])CC(O)(CC(=O)[O-])C(=O)O.[Na+].[Na+] [C-(A.21), disodium salt of citric acid]",,,,,,,,,93,78,68,50,39,31,25,20,101,
"O=C([O-])CC(O)(CC(=O)O)C(=O)O.[Na+] [C-(A.20), monosodium salt of citric acid]",,,,,,,,,92,79,70,51,39,30,22,16,100,
"CC(=O)OCC[N+](C)(C)C [(A.12), Acetylcholine]",98,96,95,88,86,80,77,76,98,97,95,91,86,80,78,74,,protease activity ([2]; 1 d): 96%; protease activity ([2]; 3 d): 92%; protease activity ([2]; 6 d): 80%; protease activity ([2]; 10 d): 70%; protease activity ([2]; 15 d): 61%; protease activity ([2]; 20 d): 50%; protease activity ([2]; 25 d): 39%; protease activity ([2]; 30 d): 31%; protease activity ([2]; T0): 96%
